Results from patent US11557737B2, “Compound, coating composition comprising same, organic light-emitting element using same, and manufacturing method therefor” (LG Chem, Ltd., priority 2018, dated 2023).

Assay: Solubility measurement (compound dissolved in solvent, left 1 day, precipitate checked by Tyndall effect)
Format: physicochemical
Settings: dissolved in a solvent, left to stand for 1 day, laser / Tyndall effect
Procedure: In the present specification, the “solubility” means a property in which a solute is dissolved in a specific solvent, and may be denoted as a g value of the solute that may be dissolved in 100 g of the solvent at a predetermined temperature.
The method of measuring the solubility is as follows. First, after a compound was dissolved in a solvent, the resulting solution was left to stand for 1 day. Thereafter, by passing a laser through the solution, it was observed whether a precipitate was formed through the Tyndall effect, and the solubility was measured.

Row | SMILES | Solubility [wt %]
1 | c1ccc([Si](c2ccccc2)(c2ccccc2)c2ccc(-c3ccc(N(c4ccc(-c5ccc6c(c5)oc5ccccc56)cc4)c4cc5ccc6cccc7ccc(c4)c5c67)cc3)cc2)cc1 [Compound F] | 2
2 | C[Si](C)(C)c1ccc(N(c2ccccc2)c2ccc3ccc4c(N(c5ccccc5)c5ccc([Si](C)(C)C)cc5)ccc5ccc2c3c54)cc1 [Compound C] | 0.1
3 | C[Si](C)(C)c1ccc(-c2ccc(N(c3ccc4ccc5c(N(c6ccc(-c7ccc([Si](C)(C)C)cc7)cc6)c6cccc7c6oc6ccccc67)ccc6ccc3c4c65)c3cccc4c3oc3ccccc34)cc2)cc1 [Compound D] | 0.05
4 | c1ccc([Si](c2ccccc2)(c2ccccc2)c2ccc(-c3ccc(N(c4ccc(-c5cccc6c5oc5ccccc56)cc4)c4cc5ccc6cccc7ccc(c4)c5c67)cc3)cc2)cc1 [Compound E] | 2
